Where two headings read alike, the source gives them in different places. Marks after values point to notes of the source that are not given here.

As for `C#CCn1cc(-c2ccncc2)c(-c2sccc2Cl)n1` [Example 131], under “pH 2.7”, the log p was 1.11^[b] and the “logP value of the minor isomer” value is “(1.10)”.

On to `CCC(C)n1cc(-c2ccncc2)c(-c2sccc2Cl)n1` (stereo not drawn) [Example 132], for which, under “pH 2.7”, the log p is 1.56^[b] and the “logP value of the minor isomer” value was “(1.67)”.

As to `CC(C)=CCn1cc(-c2ccncc2)c(-c2sccc2Cl)n1` [Example 133], for the setting “pH 2.7”, the log p was 1.74^[b].

On to `ClCCn1cc(-c2ccncc2)c(-c2sccc2Cl)n1` [Example 134], for which, where the note is “pH 2.7”, the log p was 1.22^[b] and the “logP value of the minor isomer” value is given as “(1.29)”.

As for `CCOCCn1cc(-c2ccncc2)c(-c2sccc2Cl)n1` [Example 135], under “pH 2.7”, the log p is 1.23^[b].

For the molecule `C=CCn1cc(-c2ccncc2)c(-c2sccc2Cl)n1` [Example 136], under “pH 2.7”, the log p was 1.22^[b] and the “logP value of the minor isomer” value was “(1.28)”.

For `N#CCn1cc(-c2ccncc2)c(-c2sccc2Cl)n1` [Example 137], where the note is “pH 2.7”, the log p is 0.93^[b] and the “logP value of the minor isomer” value is on record as “(0.78”.

In the case of `FC(F)(F)Cn1cc(-c2ccncc2)c(-c2sccc2Cl)n1` [Example 138], the log p (pH 2.7) is 1.39^[b].

As to `CC(C)Nc1nccc(-c2cn(C)nc2-c2ccc(Cl)s2)n1` [Example 139], where the note is “pH 2.7”, the log p was 2.07^[b] and the “logP value of the minor isomer” value is reported as “(1.93)”.

Turning to `CC(C)Nc1nccc(-c2cn(CCC#N)nc2-c2ccc(Cl)s2)n1` [Example 140], the log p (pH 2.7) is 2.15^[b].

For `CCn1cc(-c2ccnc(NC(C)C)n2)c(-c2ccc(Cl)s2)n1` [Example 141], under “pH 2.7”, the log p is 2.39^[b] and the “logP value of the minor isomer” value is reported as “(2.20)”.

Turning to `Cn1cc(-c2ccncc2)c(-c2sccc2Cl)n1` [Example 142], where the note is “pH 2.7”, the log p is 0.78^[b] and the “logP value of the minor isomer” value is “(0.88)”.

On to `N#CCCn1cc(-c2ccncc2)c(-c2sccc2Cl)n1` [Example 143], for which, under “pH 2.7”, the log p was 0.86^[b].

As to `CC(C)n1cc(-c2ccnc(NC=O)n2)c(-c2ccc(Cl)s2)n1` [Example 144], the log p (pH 2.3) is 3.81^[a].

Consider `Cc1c(-c2ccncc2)c(-c2ccc(Cl)s2)nn1C` [Example 147], for which the log p was 1.29^[b] (pH 2.7) and 2.62^[c]; (pH 7.8).

As for `CC(C)Cn1cc(-c2ccncc2)c(-c2cc(Cl)cs2)n1` [Example 152], the log p (pH 2.7) is 1.87^[b].

For the molecule `CC(C)Nc1nccc(-c2cn(CCc3ccccc3)nc2-c2ccc(Cl)s2)n1` [Example 153], the log p (pH 2.7) is 3.63^[b].

Regarding `CC(C)Nc1nccc(-c2cn(C3CCCC3)nc2-c2ccc(Cl)s2)n1` [Example 154], the log p (pH 2.7) was 3.61^[b].

Take `C=CCn1cc(-c2ccnc(NC(C)C)n2)c(-c2ccc(Cl)s2)n1` [Example 155]: where the note is “pH 2.7”, the log p is 2.68^[b].

Consider `CCn1cc(-c2ccncc2)c(-c2cc(Cl)cs2)n1` [Example 156], for which the log p (pH 2.7) is 1.34^[b].

Turning to `FC(F)Cn1cc(-c2ccncc2)c(-c2cc(Cl)cs2)n1` [Example 157], the log p (pH 2.7) is 1.42^[b].

With `CC(C)n1cc(-c2ccncc2)c(-c2sccc2Cl)n1` [Example 158], for the setting “pH 2.7”, the log p is 1.38^[b].

With `CC(C)Cn1cc(-c2ccncc2)c(-c2sccc2Cl)n1` [Example 159], the log p (pH 2.7) is 1.62^[b].

With `Clc1ccsc1-c1nn(C2CCCC2)cc1-c1ccncc1` [Example 160], the log p (pH 2.7) is 1.76^[b].

For `C=CC(C)n1cc(-c2ccncc2)c(-c2sccc2Cl)n1` (stereo not drawn) [Example 161], the log p (pH 2.7) is 1.51^[b].

With `CC(C)Nc1nccc(-c2cn(CC(F)F)nc2-c2ccc(Cl)s2)n1` [Example 162], the log p (pH 2.7) is 2.66^[b].

In the case of `CCn1cc(-c2ccncc2)c(-c2sccc2Cl)n1` [Example 163], the log p (pH 2.7) is 1.14^[b].

Take `COCC(C)Nc1nccc(-c2cn(C(C)C)nc2-c2ccc(Cl)s2)n1` (stereo not drawn) [Example 178]: the log p (pH 2.3) was 2.82^[a].

As to `CCC(C)Nc1nccc(-c2cn(C(C)C)nc2-c2ccc(Cl)s2)n1` (stereo not drawn) [Example 182], the log p (pH 2.3) is 3.15^[a].

Regarding `C=CCNc1nccc(-c2cn(C(C)C)nc2-c2ccc(Cl)s2)n1` [Example 184], where the note is “pH 2.3”, the log p was 3^[a].

Consider `CC(C)n1cc(-c2ccnc(N)n2)c(-c2ccc(Cl)s2)n1` [Example 185], for which, for the setting “pH 2.3”, the log p was 2.01^[a].

Take `CCC(C)n1cc(-c2ccnc(NC(C)C)n2)c(-c2ccc(Cl)s2)n1` (stereo not drawn) [Example 189]: the log p (pH 2.3) was 3.25^[a].

Consider `CC(C)n1cc(-c2ccnc(Cl)n2)c(-c2ccc(Cl)s2)n1` [Example 192], for which the log p (pH 2.3) is 4.31^[a].

For `CC(C)n1cc(-c2ccnc(NCc3ccccc3)n2)c(-c2ccc(Cl)s2)n1` [Example 198], the log p (pH 2.3) was 3.81^[a].

In the case of `CCC(C)n1cc(-c2ccnc(NCc3ccccc3)n2)c(-c2ccc(Cl)s2)n1` (stereo not drawn) [Example 200], where the note is “pH 2.3”, the log p is 4.27^[a].

As to `CCC(C)n1cc(-c2ccnc(S(C)(=O)=O)n2)c(-c2ccc(Cl)s2)n1` (stereo not drawn) [Example 202], the log p (pH 2.3) was 3.52^[a].

As for `CC(C)n1cc(-c2ccnc(S(C)(=O)=O)n2)c(-c2ccc(Cl)s2)n1` [Example 203], the log p (pH 2.3) was 3.15^[a].

`CCC(C)n1ncc(-c2ccnc(SC)n2)c1-c1ccc(Cl)s1` (stereo not drawn) [Example 209]: the log p (pH 2.3) is 4.76^[a].

Take `CC(C)n1ncc(-c2ccncc2)c1-c1ccc(I)s1` [Example 215]: the log p (pH 2.7) was 1.78^[b].

As for `CC(=O)Nc1cc(-c2cn(C)nc2-c2ccc(NC(C)=O)s2)ccn1` [Example 216], where the note is “pH 2.7”, the log p was 0.76^[b].

`CCC(C)n1cc(-c2ccnc(NS(=O)(=O)N(C)C)c2)c(-c2ccc(Cl)s2)n1` (stereo not drawn) [Example 217]: the log p (pH 2.7) was 3.35^[b].

Consider `CC(C)n1cc(-c2ccnc(NS(=O)(=O)N(C)C)c2)c(-c2ccc(Cl)s2)n1` [Example 218], for which, where the note is “pH 2.7”, the log p was 3^[b].

With `CCn1cc(-c2ccnc(NS(=O)(=O)N(C)C)c2)c(-c2ccc(Cl)s2)n1` [Example 219], for the setting “pH 2.7”, the log p is 2.59^[b].

For the molecule `CN(C)S(=O)(=O)Nc1cc(-c2cn(C)nc2-c2ccc(Cl)s2)ccn1` [Example 220], the log p (pH 2.7) is 2.23^[b].

For `CCC(C)n1cc(-c2ccnc(SC)n2)c(-c2ccc(Cl)s2)n1` (stereo not drawn) [Example 221], where the note is “pH 2.3”, the log p is 4.88^[a].

Consider `CSc1nccc(-c2cn(C(C)C)nc2-c2ccc(Cl)s2)n1` [Example 222], for which, where the note is “pH 2.3”, the log p was 4.44^[a].

Consider `CCC(C)n1cc(-c2ccnc(NC(=O)C(C)(C)C)c2)c(-c2ccc(Cl)s2)n1` (stereo not drawn) [Example 231], for which the log p (pH 2.7) is 4.35^[b].

Take `CCC(C)n1cc(-c2ccnc(NC(=O)c3ccccc3)c2)c(-c2ccc(Cl)s2)n1` (stereo not drawn) [Example 237]: the log p (pH 2.7) is 4.46^[b].

As to `CCn1cc(-c2ccnc(NC(=O)c3ccccc3)c2)c(-c2ccc(Cl)s2)n1` [Example 266], the log p (pH 2.7) was 3.55^[b].

Turning to `CCn1cc(-c2ccnc(NC(=O)OC(C)C)c2)c(-c2ccc(Cl)s2)n1` [Example 268], the log p (pH 2.7) was 3.35^[b].

In the case of `Cn1cc(-c2ccnc(NC(=O)c3cccs3)c2)c(-c2ccc(Cl)s2)n1` [Example 273], the log p (pH 2.7) is 3.04^[b].

As to `Cn1cc(-c2ccnc(NC(=O)C(C)(C)C)c2)c(-c2ccc(Cl)s2)n1` [Example 283], for the setting “pH 2.7”, the log p is 2.92^[b].

Consider `CC(=O)N(C(C)=O)c1cc(-c2cn(C)nc2-c2ccc(N(C(C)=O)C(C)=O)s2)ccn1` [Example 289], for which, for the setting “pH 2.7”, the log p was 1.84^[b].

`CC(=O)Nc1ccc(-c2nn(C)cc2-c2ccnc(N(C(C)=O)C(C)=O)c2)s1` [Example 290]: the log p (pH 2.7) was 1.39^[b].

As for `CSc1ccc(-c2c(-c3ccncc3)cnn2C(C)C)s1` [Example 295], the log p (pH 2.7) was 1.78^[b].

Regarding `FC=Cn1cc(-c2ccnc(N=C(c3ccccc3)c3ccccc3)c2)c(-c2ccc(Cl)s2)n1` [Example 302], the log p (pH 2.7) is 4.67^[b].

On to `Cn1cc(-c2ccnc(N=C(c3ccccc3)c3ccccc3)c2)c(-c2ccc(Cl)s2)n1` [Example 309], for which the log p (pH 2.7) is 4.67^[b].

`CC(C)n1cc(-c2ccnc(N=C(c3ccccc3)c3ccccc3)c2)c(-c2ccc(Cl)s2)n1` [Example 310]: the log p (pH 2.7) was 4.46^[b].

As to `FC(F)Cn1cc(-c2ccnc(Cl)c2)c(-c2ccc(Cl)s2)n1` [Example 314], the log p (pH 2.7) is 3.71^[b].

As for `CC(C)n1cc(-c2ccnc(Cl)c2)c(-c2ccc(Cl)s2)n1` [Example 315], the log p (pH 2.7) is 4.44^[b].

As for `Fc1cccc(Cn2cc(-c3ccncc3)c(-c3ccc(Cl)s3)n2)c1F` [Example 325], the log p (pH 2.7) is 2.39^[b].

For `CC1(Cn2cc(-c3ccncc3)c(-c3cc4ccsc4s3)n2)CC1(Cl)Cl` (stereo not drawn) [Example 326], under “pH 2.7”, the log p is 2.62^[b] and the “logP value of the minor isomer (between parenthesis, Isomer ratio column)” value was “(2.46)”.

`Fc1cccc(Cn2cc(-c3ccncc3)c(-c3cc4ccsc4s3)n2)c1F` [Example 327]: the log p (pH 2.7) is 1.75^[b].

Regarding `CC(C)=CCn1cc(-c2ccncc2)c(-c2cc3ccsc3s2)n1` [Example 331], where the note is “pH 2.7”, the log p is 1.69^[b].

For `ClC(Cl)=CCn1cc(-c2ccncc2)c(-c2cc3ccsc3s2)n1` [Example 335], the log p (pH 2.7) is 1.67^[b].

Turning to `N#CCn1cc(-c2ccncc2)c(-c2cc3ccsc3s2)n1` [Example 336], where the note is “pH 2.7”, the log p is 1.48^[b].

As for `Clc1ccc(Cn2cc(-c3ccncc3)c(-c3cc4ccsc4s3)n2)s1` [Example 339], for the setting “pH 2.7”, the log p was 2.57^[b] and the “logP value of the minor isomer (between parenthesis, Isomer ratio column)” value was “(2.35)”.

For `CC(C)=CCn1cc(-c2ccncc2)c(-c2ccc(F)s2)n1` [Example 343], the log p (pH 2.7) is 1.45^[b].

For the molecule `Fc1ccc(-c2nn(CC=C(Cl)Cl)cc2-c2ccncc2)s1` [Example 346], the log p (pH 2.7) was 1.43^[b].

For `N#Cc1ccccc1Cn1cc(-c2ccncc2)c(-c2ccc(Br)s2)n1` [Example 352], the log p (pH 2.7) was 2.13^[b].

Turning to `CC(C)=CCn1cc(-c2ccncc2)c(-c2ccc(Br)s2)n1` [Example 355], under “pH 2.7”, the log p is 2.35^[b] and the “logP value of the minor isomer (between parenthesis, Isomer ratio column)” value was “(2.11)”.

Regarding `C=CCn1cc(-c2ccncc2)c(-c2ccc(F)s2)n1` [Example 382], for the setting “pH 2.7”, the log p was 1.54^[b] and the “logP value of the minor isomer” value was “(1.48)”.

For `C=CCn1cc(-c2ccncc2)c(-c2ccc(Br)s2)n1` [Example 383], under “pH 2.7”, the log p was 1.82^[b] and the “logP value of the minor isomer” value is on record as “(1.73)”.

The record behind these values is US8685974B2 (Bayer CropScience AG, priority 2009, dated 2014).
